Assay results as given in the NIST ThermoML archive (doi:10.1016/j.jct.2014.01.006).
“And” between values parts separate entries of the source, which are not always exact repeats. Equal entries are not always repeated. ± gives the expanded uncertainty stated by the source.

Key:
[1] = molar heat capacity at saturation pressure
[2] = Molar enthalpy of transition or fusion; details: Crystal; Adiabatic calorimetry
[3] = for vapor or sublimation pressure: Liquid, Ebulliometric method (Recirculating still); for Triple point temperature: Adiabatic calorimetry

c1ccc(-c2ccc3ccccc3c2)cc1 [2-phenylnaphthalene] showed a molar heat capacity ([1]; 5.559 K, Metastable crystal, Vacuum adiabatic calorimetry) of 0.7317 ± 0.025 J/K/mol, a molar heat capacity ([1]; 6.48 K, Metastable crystal, Vacuum adiabatic calorimetry) of 1.172 ± 0.042 J/K/mol and a molar heat capacity ([1]; 7.437 K, Metastable crystal, Vacuum adiabatic calorimetry) of 1.821 ± 0.058 J/K/mol. For the same molecule, the molar heat capacity ([1]; 8.415 K, Metastable crystal, Vacuum adiabatic calorimetry) was 2.519 ± 0.083 J/K/mol, the molar heat capacity ([1]; 9.445 K, Metastable crystal, Vacuum adiabatic calorimetry) was 3.484 ± 0.11 J/K/mol and the molar heat capacity ([1]; 10.55 K, Metastable crystal, Vacuum adiabatic calorimetry) was 4.639 ± 0.042 J/K/mol. The molar heat capacity ([1]; 11.76 K, Metastable crystal, Vacuum adiabatic calorimetry) was 5.912 ± 0.05 J/K/mol, the molar heat capacity ([1]; 13.12 K, Metastable crystal, Vacuum adiabatic calorimetry) was 7.541 ± 0.067 J/K/mol and the molar heat capacity ([1]; 14.58 K, Metastable crystal, Vacuum adiabatic calorimetry) was 9.304 ± 0.075 J/K/mol. It also gave a molar heat capacity ([1]; 16.16 K, Metastable crystal, Vacuum adiabatic calorimetry) of 11.42 ± 0.083 J/K/mol, a molar heat capacity ([1]; 17.89 K, Metastable crystal, Vacuum adiabatic calorimetry) of 13.64 ± 0.1 J/K/mol and a molar heat capacity ([1]; 19.78 K, Metastable crystal, Vacuum adiabatic calorimetry) of 16.13 ± 0.11 J/K/mol. The molar heat capacity ([1]; 21.84 K, Metastable crystal, Vacuum adiabatic calorimetry) was 18.86 ± 0.12 J/K/mol, the molar heat capacity ([1]; 24.08 K, Metastable crystal, Vacuum adiabatic calorimetry) was 21.79 ± 0.14 J/K/mol and the molar heat capacity ([1]; 26.55 K, Metastable crystal, Vacuum adiabatic calorimetry) was 25.04 ± 0.15 J/K/mol. For the same molecule, the molar heat capacity ([1]; 29.3 K, Metastable crystal, Vacuum adiabatic calorimetry) was 28.54 ± 0.17 J/K/mol, the molar heat capacity ([1]; 32.36 K, Metastable crystal, Vacuum adiabatic calorimetry) was 32.33 ± 0.083 J/K/mol and the molar heat capacity ([1]; 35.77 K, Metastable crystal, Vacuum adiabatic calorimetry) was 36.35 ± 0.091 J/K/mol. The molar heat capacity ([1]; 39.57 K, Metastable crystal, Vacuum adiabatic calorimetry) was 40.62 ± 0.1 J/K/mol, the molar heat capacity ([1]; 43.81 K, Metastable crystal, Vacuum adiabatic calorimetry) was 45.16 ± 0.11 J/K/mol and the molar heat capacity ([1]; 48.55 K, Metastable crystal, Vacuum adiabatic calorimetry) was 49.75 ± 0.11 J/K/mol. For the same molecule, the molar heat capacity ([1]; 53.87 K, Metastable crystal, Vacuum adiabatic calorimetry) was 54.71 ± 0.12 J/K/mol, the molar heat capacity ([1]; 54.57 K, Metastable crystal, Vacuum adiabatic calorimetry) was 55.24 ± 0.12 J/K/mol and the molar heat capacity ([1]; 59.82 K, Metastable crystal, Vacuum adiabatic calorimetry) was 59.78 ± 0.12 J/K/mol. For the same molecule, the molar heat capacity ([1]; 59.83 K, Metastable crystal, Vacuum adiabatic calorimetry) was 59.82 ± 0.13 J/K/mol, the molar heat capacity ([1]; 65.64 K, Metastable crystal, Vacuum adiabatic calorimetry) was 64.42 ± 0.13 J/K/mol and the molar heat capacity ([1]; 66.41 K, Metastable crystal, Vacuum adiabatic calorimetry) was 64.99 ± 0.14 J/K/mol. It also gave a molar heat capacity ([1]; 72.14 K, Metastable crystal, Vacuum adiabatic calorimetry) of 69.36 ± 0.14 J/K/mol, a molar heat capacity ([1]; 79.33 K, Metastable crystal, Vacuum adiabatic calorimetry) of 74.52 ± 0.15 J/K/mol and a molar heat capacity ([1]; 84.66 K, Metastable crystal, Vacuum adiabatic calorimetry) of 78.26 ± 0.16 J/K/mol. For the same molecule, the molar heat capacity ([1]; 87.38 K, Metastable crystal, Vacuum adiabatic calorimetry) was 80.02 ± 0.17 J/K/mol, the molar heat capacity ([1]; 91.53 K, Metastable crystal, Vacuum adiabatic calorimetry) was 82.9 ± 0.22 J/K/mol and the molar heat capacity ([1]; 96.29 K, Metastable crystal, Vacuum adiabatic calorimetry) was 86.19 ± 0.22 J/K/mol. For the same molecule, the molar heat capacity ([1]; 100.11 K, Metastable crystal, Vacuum adiabatic calorimetry) was 88.71 ± 0.22 J/K/mol, the molar heat capacity ([1]; 109.67 K, Metastable crystal, Vacuum adiabatic calorimetry) was 95.07 ± 0.23 J/K/mol and the molar heat capacity ([1]; 119.51 K, Metastable crystal, Vacuum adiabatic calorimetry) was 101.67 ± 0.23 J/K/mol. For the same molecule, the molar heat capacity ([1]; 129.29 K, Metastable crystal, Vacuum adiabatic calorimetry) was 108.34 ± 0.24 J/K/mol, the molar heat capacity ([1]; 139.13 K, Metastable crystal, Vacuum adiabatic calorimetry) was 115.15 ± 0.25 J/K/mol and the molar heat capacity ([1]; 149.04 K, Metastable crystal, Vacuum adiabatic calorimetry) was 122.22 ± 0.26 J/K/mol. For the same molecule, the molar heat capacity ([1]; 159.05 K, Metastable crystal, Vacuum adiabatic calorimetry) was 129.45 ± 0.27 J/K/mol, the molar heat capacity ([1]; 169.13 K, Metastable crystal, Vacuum adiabatic calorimetry) was 137.04 ± 0.27 J/K/mol and the molar heat capacity ([1]; 179.22 K, Metastable crystal, Vacuum adiabatic calorimetry) was 144.69 ± 0.28 J/K/mol. It also gave a molar heat capacity ([1]; 189.28 K, Metastable crystal, Vacuum adiabatic calorimetry) of 152.55 ± 0.29 J/K/mol, a molar heat capacity ([1]; 199.33 K, Metastable crystal, Vacuum adiabatic calorimetry) of 160.58 ± 0.3 J/K/mol and a molar heat capacity ([1]; 210.43 K, Metastable crystal, Vacuum adiabatic calorimetry) of 169.63 ± 0.32 J/K/mol. It also gave a molar heat capacity ([1]; 222.54 K, Metastable crystal, Vacuum adiabatic calorimetry) of 179.67 ± 0.32 J/K/mol, a molar heat capacity ([1]; 234.7 K, Metastable crystal, Vacuum adiabatic calorimetry) of 190.12 ± 0.33 J/K/mol and a molar heat capacity ([1]; 246.9 K, Metastable crystal, Vacuum adiabatic calorimetry) of 200.49 ± 0.35 J/K/mol. The molar heat capacity ([1]; 260.13 K, Metastable crystal, Vacuum adiabatic calorimetry) was 212.11 ± 0.36 J/K/mol, the molar heat capacity ([1]; 274.34 K, Metastable crystal, Vacuum adiabatic calorimetry) was 224.81 ± 0.37 J/K/mol and the molar heat capacity ([1]; 281.75 K, Metastable crystal, Vacuum adiabatic calorimetry) was 231.62 ± 0.38 J/K/mol. For the same molecule, the molar heat capacity ([1]; 287.18 K, Metastable crystal, Vacuum adiabatic calorimetry) was 236.87 ± 0.39 J/K/mol, the molar heat capacity ([1]; 288.45 K, Metastable crystal, Vacuum adiabatic calorimetry) was 238 ± 0.39 J/K/mol and the molar heat capacity ([1]; 288.88 K, Metastable crystal, Vacuum adiabatic calorimetry) was 238.28 ± 0.39 J/K/mol. For the same molecule, the molar heat capacity ([1]; 289.67 K, Metastable crystal, Vacuum adiabatic calorimetry) was 239.32 ± 0.39 J/K/mol, the molar heat capacity ([1]; 290.86 K, Metastable crystal, Vacuum adiabatic calorimetry) was 240.77 ± 0.39 J/K/mol and the molar heat capacity ([1]; 297.62 K, Metastable crystal, Vacuum adiabatic calorimetry) was 247.26 ± 0.4 J/K/mol. It also gave a molar heat capacity ([1]; 302.22 K, Metastable crystal, Vacuum adiabatic calorimetry) of 251.81 ± 0.41 J/K/mol, a molar heat capacity ([1]; 303.66 K, Metastable crystal, Vacuum adiabatic calorimetry) of 253.46 ± 0.41 J/K/mol and a molar heat capacity ([1]; 304.26 K, Metastable crystal, Vacuum adiabatic calorimetry) of 253.82 ± 0.41 J/K/mol. It also gave a molar heat capacity ([1]; 305.95 K, Metastable crystal, Vacuum adiabatic calorimetry) of 255.73 ± 0.42 J/K/mol, a molar heat capacity ([1]; 316.27 K, Metastable crystal, Vacuum adiabatic calorimetry) of 265.74 ± 0.42 J/K/mol and a molar heat capacity ([1]; 319.32 K, Metastable crystal, Vacuum adiabatic calorimetry) of 269.07 ± 0.42 J/K/mol. For the same molecule, the molar heat capacity ([1]; 319.63 K, Metastable crystal, Vacuum adiabatic calorimetry) was 269.43 ± 0.42 J/K/mol, the molar heat capacity ([1]; 323.18 K, Metastable crystal, Vacuum adiabatic calorimetry) was 273.51 ± 0.43 J/K/mol and the molar heat capacity ([1]; 328.64 K, Metastable crystal, Vacuum adiabatic calorimetry) was 281.65 ± 0.44 J/K/mol. The molar heat capacity ([1]; 334.1 K, Crystal, Vacuum adiabatic calorimetry) was 295.45 ± 0.46 J/K/mol, the molar heat capacity ([1]; 339.55 K, Crystal, Vacuum adiabatic calorimetry) was 300.3 ± 0.47 J/K/mol and the molar heat capacity ([1]; 340.55 K, Crystal, Vacuum adiabatic calorimetry) was 301.83 ± 0.47 J/K/mol. It also gave a molar heat capacity ([1]; 345.85 K, Crystal, Vacuum adiabatic calorimetry) of 308.66 ± 0.47 J/K/mol, a molar heat capacity ([1]; 346.7 K, Crystal, Vacuum adiabatic calorimetry) of 310.38 ± 0.47 J/K/mol and a molar heat capacity ([1]; 352.89 K, Crystal, Vacuum adiabatic calorimetry) of 319.98 ± 0.49 J/K/mol. It also gave a molar heat capacity ([1]; 354.52 K, Crystal, Vacuum adiabatic calorimetry) of 323.81 ± 0.49 J/K/mol, a molar heat capacity ([1]; 355.25 K, Crystal, Vacuum adiabatic calorimetry) of 323.51 ± 0.49 J/K/mol and a molar heat capacity ([1]; 356.41 K, Crystal, Vacuum adiabatic calorimetry) of 326.01 ± 0.5 J/K/mol. It also gave a molar heat capacity ([1]; 360.85 K, Crystal, Vacuum adiabatic calorimetry) of 334.71 ± 0.51 J/K/mol, a molar heat capacity ([1]; 364.78 K, Crystal, Vacuum adiabatic calorimetry) of 343.22 ± 0.52 J/K/mol and a molar heat capacity ([1]; 365.47 K, Crystal, Vacuum adiabatic calorimetry) of 344.57 ± 0.52 J/K/mol. For the same molecule, the molar heat capacity ([1]; 365.99 K, Crystal, Vacuum adiabatic calorimetry) was 347.25 ± 0.53 J/K/mol, the molar heat capacity ([1]; 368.76 K, Crystal, Vacuum adiabatic calorimetry) was 353.17 ± 0.53 J/K/mol and the molar heat capacity ([1]; 381.15 K, Liquid, Vacuum adiabatic calorimetry) was 364.06 ± 0.54 J/K/mol. For the same molecule, the molar heat capacity ([1]; 381.64 K, Liquid, Vacuum adiabatic calorimetry) was 364.18 ± 0.54 J/K/mol, the molar heat capacity ([1]; 382.95 K, Liquid, Vacuum adiabatic calorimetry) was 365.06 ± 0.54 J/K/mol and the molar heat capacity ([1]; 388.39 K, Liquid, Vacuum adiabatic calorimetry) was 368.05 ± 0.55 J/K/mol. For the same molecule, the molar heat capacity ([1]; 390.22 K, Liquid, Vacuum adiabatic calorimetry) was 369.13 ± 0.55 J/K/mol, the molar heat capacity ([1]; 405.19 K, Liquid, Vacuum adiabatic calorimetry) was 377.51 ± 0.56 J/K/mol and the molar heat capacity ([1]; 410.1 K, Liquid, Small sample (50 mg) DSC) was 380.3 ± 9.3 J/K/mol and 382.63 ± 9.4 J/K/mol. For the same molecule, the molar heat capacity ([1]; 422.04 K, Liquid, Vacuum adiabatic calorimetry) was 386.86 ± 0.57 J/K/mol, the molar heat capacity ([1]; 430 K, Liquid, Small sample (50 mg) DSC) was 394.6 ± 9.6 J/K/mol and 391.03 ± 9.6 J/K/mol and the molar heat capacity ([1]; 436.24 K, Liquid, Vacuum adiabatic calorimetry) was 394.72 ± 0.57 J/K/mol. For the same molecule, the molar heat capacity ([1]; 450 K, Liquid, Small sample (50 mg) DSC) was 405.58 ± 9.9 J/K/mol and 401.51 ± 9.8 J/K/mol, the molar heat capacity ([1]; 470.1 K, Liquid, Small sample (50 mg) DSC) was 411.15 ± 10 J/K/mol and 413.48 ± 10 J/K/mol and the molar heat capacity ([1]; 490 K, Liquid, Small sample (50 mg) DSC) was 424.7 ± 10 J/K/mol and 423.46 ± 10 J/K/mol. For the same molecule, the molar heat capacity ([1]; 510 K, Liquid, Small sample (50 mg) DSC) was 434.93 ± 11 J/K/mol and 427.36 ± 10 J/K/mol, the molar heat capacity ([1]; 530.1 K, Liquid, Small sample (50 mg) DSC) was 446.82 ± 11 J/K/mol and 444.24 ± 11 J/K/mol and the molar heat capacity ([1]; 550.1 K, Liquid, Small sample (50 mg) DSC) was 457.21 ± 11 J/K/mol and 455.97 ± 11 J/K/mol. For the same molecule, the molar heat capacity ([1]; 570.1 K, Liquid, Small sample (50 mg) DSC) was 468.27 ± 11 J/K/mol and 467.27 ± 11 J/K/mol, the molar heat capacity ([1]; 590.1 K, Liquid, Small sample (50 mg) DSC) was 477.92 ± 12 J/K/mol and 476.09 ± 12 J/K/mol and the molar heat capacity ([1]; 610.1 K, Liquid, Small sample (50 mg) DSC) was 484.48 ± 12 J/K/mol and 484.15 ± 12 J/K/mol. The “Molar enthalpy of transition or fusion” value [2] was 5.406 ± 0.00574 kcal/mol, the “vapor or sublimation pressure” value ([3]; 482.85 K) was 1.996 ± 0.0082 kPa and the “vapor or sublimation pressure” value ([3]; 502.83 K) was 3.998 ± 0.0084 kPa. The “vapor or sublimation pressure” value ([3]; 511.75 K) was 5.335 ± 0.0089 kPa, the “vapor or sublimation pressure” value ([3]; 524.93 K) was 7.993 ± 0.0095 kPa and the “vapor or sublimation pressure” value ([3]; 534.9 K) was 10.67 ± 0.01 kPa. The “vapor or sublimation pressure” value ([3]; 542.89 K) was 13.33 ± 0.011 kPa, the “vapor or sublimation pressure” value ([3]; 551.2 K) was 16.66 ± 0.013 kPa and the “vapor or sublimation pressure” value ([3]; 558.16 K) was 19.95 ± 0.014 kPa. The “vapor or sublimation pressure” value ([3]; 567.23 K) was 25.03 ± 0.016 kPa, the “vapor or sublimation pressure” value ([3]; 576.35 K) was 31.16 ± 0.018 kPa and the “vapor or sublimation pressure” value ([3]; 585.57 K) was 38.56 ± 0.022 kPa. For the same molecule, the “vapor or sublimation pressure” value ([3]; 594.82 K) was 47.36 ± 0.025 kPa, the “vapor or sublimation pressure” value ([3]; 604.12 K) was 57.8 ± 0.027 kPa and the Triple point temperature ([3]; Crystal) was 374.77 ± 0.039 K. The Triple point temperature ([3]; Metastable crystal) was 331.4 ± 0.1 K.
